For test [1], the target named is FABP3 (Homo sapiens (Human), UniProt P05413). Kind of test: Evaluation of FABP3 ligand activity, fluorescent displacement assay using 1,8-ANS. It is filed as binding. Particulars: 1,8-ANS displacement; average of two measurements. The procedure:
Adopted for evaluation in the evaluation of FABP3 ligand activity was a fluorescent displacement assay using 1,8-ANS (1-anilino-8-naphthalenesulfonic acid). Fluorescent materials such as 1,8-ANS are characterized by an increase in the fluorescent intensity under a hydrophobic environment. […] Ethanol was used as the dilution solvent of the compounds.
To each well was added as a detection reagent, a 1,8-ANS (ALDRICH) solution (10 μM, ethanol/sodium phosphate buffer solution=1:4 v/v, 25 μL), and ethanol solutions of compounds diluted to different concentrations were added in an amount of 10 μL each (the final ethanol concentration was 15%). The plate was shaken for 10 sec. in the plate reader and incubated for 10 min. at room temperature. […] Used for measurement was ARVO™ X One by PerkinElmer Japan.
(§1) Measurement was performed twice each, and the average was adopted as the result. The software, Origin, available from Light Stone was used for calculating IC50.

The target in test [2] is FABP4 (Homo sapiens (Human), UniProt P15090). Put plainly: Evaluation of FABP4 ligand activity, fluorescent displacement assay using 1,8-ANS (Cayman assay kit). It is filed as binding. Particulars: 1,8-ANS displacement; average of two measurements. The procedure:
An evaluation of FABP4 was performed using a fluorescent displacement assay using 1,8-ANS, similar to FABP3. Used in the evaluation of FABP4 was an assay kit (FABP4 Inhibitor/Ligand Screening Assay Kit) available from Cayman Chemical Company. Ethanol was used as a solvent for dissolving the compound, and an arachidonic acid which comes with the kit was used as a positive control. The measurement procedure was performed similarly to the aforementioned FABP3 assay.
as §1

The test system of test [3] is PC12 cells transfected with genes of α-synuclein and FABP3. Kind of test: Inhibitory activity against α-synuclein oligomer formation (Western blotting). It is filed as cell-based. Particulars: 10 μM, 16 hours, FIG. 1.
The subject of test [4] is MPTP Parkinson's disease model C57BL6 N mice. Put plainly: Test Example 9: motor function in MPTP Parkinson's disease model mice. It is filed as in vivo, mouse. Conditions: p.o. once every day (Example 1: 0.1, 0.5 or 1.0 mg/kg; others 1.0 mg/kg), three weeks after MPTP, FIG. 9. On the procedure: MPTP (25 mg/kg, i.p.) was administered once every day for 5 consecutive days to a 10 week old male C57BL6 N mice to prepare a Parkinson's disease model mice. […] Three weeks after administration of MPTP, at which time motor dysfunction was observed, the motor function was evaluated by a rotarod test and beam walking test.

Test [5] has the same test system. Put plainly: Test Example 10: cognitive function in MPTP Parkinson's disease model mice. Particulars: p.o. once every day (Example 1: 0.1, 0.5 or 1.0 mg/kg; others 1.0 mg/kg), four weeks after MPTP, FIG. 10. It is filed as in vivo, mouse. The procedure: MPTP (25 mg/kg, i.p.) was administered once every day for 5 consecutive days to a 10 week old male C57BL6 N mice to prepare a Parkinson's disease model mice. […] Four weeks after administration of MPTP, at which time cognitive dysfunction was observed, the cognitive function was evaluated by a novel object recognition test and a passive avoidance test. The passive avoidance test was performed by putting a mouse in a light room and applying electric shock (0.3 mA, 2 second) on the mouse when it entered the dark room in the train run. Twenty four hours later, the mouse was put in the light room again, and the time until the mouse entered the dark room was measured.

For test [6], the system named is dopamine neurons (TH positive cells) of substantia nigra, MPTP model mice. Kind of test: Test Example 11: dopamine neuroprotection in MPTP Parkinson's disease model mice. It is filed as in vivo, mouse. Particulars: p.o. once every day (Example 1: 0.1, 0.3 or 1.0 mg/kg; others 1.0 mg/kg), four weeks after MPTP, FIG. 11. The procedure:
(§2) MPTP (25 mg/kg, i.p.) was administered once every day for 5 consecutive days to a 10 week old male C57BL6 N mice to prepare a Parkinson's disease model mice. […] Four weeks after MPTP administration, at which time a loss in the dopamine neuron and formation of α-synuclein multimers are observed, the mouse was fixed under perfusion to prepare a brain slice 50 μm thick that includes a substantia nigra region.

The subject of test [7] is TH and α-synuclein double positive cells of substantia nigra, MPTP model mice. Put plainly: Test Example 12: suppression of α-synuclein aggregation in MPTP Parkinson's disease model mice. It is filed as in vivo, mouse. Conditions: p.o. once every day (Example 1: 0.1, 0.3 or 1.0 mg/kg; others 1.0 mg/kg), four weeks after MPTP, FIG. 12. The procedure: as §2, with “observed, a” for “observed, the”, “region. The brain slice was reacted with an anti-TH antibody (mouse monoclonal antibody 22941 produced by Immunostar, 1:1000) and an anti-α-synuclein antibody (rabbit polyclonal antibody SC-7011-R produced by Santa Cruz, 1:200) and detected by a fluorescence-labeled, secondary antibody (Alexa 488 anti-rabbit IgG (produced by Jackson ImmunoResearch, 1:500)) to evaluate the number of positive cells.” for “region.”

The target in test [8] is GST-FABP3 (Mus musculus (Mouse), UniProt P11404). Kind of test: Test Example 13: affinity of FABP ligand using ANS, GST-FABP3. It is filed as binding. Particulars: ANS fluorescence; average of three measurements±SE; read-out: Kd value of FABP against the ligands, GST-FABP3. The procedure:
Pt: FABP protein concentration (=400 nM);

In test [9] the target is GST-FABP4 (Mus musculus (Mouse), UniProt P04117). Put plainly: Test Example 13: affinity of FABP ligand using ANS, GST-FABP4. Conditions: read-out: Kd value of FABP against the ligands, GST-FABP4; ANS fluorescence; average of three measurements±SE.
Method: After GST-FABP3 and GST-FABP4 were respectively expressed in the Escherichia coli [BL21 (DE3) strain], affinity purification was performed using a glutathione column.
Purification of the GST binding protein was performed using a GST purification kit (Takara Bio USA). After the Escherichia coli was recovered by centrifuging, the accessory extraction buffer and aluminum oxide powder were added and the mixture was ground in the mortar. The centrifuged supernatant was added to the accessory glutathione column and left stationary on ice for 30 min. Then, the supernatant in the column was thrown away, and the remaining matter was washed with the extraction buffer, and subsequently subjected to elution using an elution buffer including glutathione. The protein concentration of the elution product was calculated from the absorbance at 280 nm, and used as an ANS assay.
The fluorescence intensity at the respective ligand concentrations was converted to a relative value (%) against the ANS fluorescence intensity under the absence of ligand, then the dissociation constant Kd(nM) was calculated by a nonrecurring analysis using the following equation.
F: Relative fluorescence intensity at a certain condition (%);
Ka: Reciprocal of dissociation constant Kd (nM^−1);
Fmax*: Relative fluorescence intensity when FABP is fully occupied by ligands.
Test [10] has as its system α-Syn PPF-injected mice. Kind of test: Evaluation of motor function in α-Syn PPF-injected mice (rotarod, beam walking). It is filed as in vivo, mouse. Conditions: 1.0 mg/kg p.o. daily 4 weeks, FIG. 5. On the procedure: In a rotarod test, a mouse was put on a roller, and the time until it fell (Latency) was measured while the roller was rotated at a rate of 20 rpm. […] In a beam walking test, a mouse was put on a thin board and made walk on that board, and the number of footslips until the mouse reached the goal box was counted.
On the technique in general: Falling from the rotarod earlier than controls is read as motor impairment.

Test [11] concerns α-Syn PPF-injected mice. Kind of test: Evaluation of cognitive function in α-Syn PPF-injected mice (novel object recognition). It is filed as in vivo, mouse. Conditions: 1.0 mg/kg p.o. daily 4 weeks, FIG. 6. The source says:
The novel object recognition test included a train run, in which objects of the same shape were put down for a mouse to memorize, and a test run, in which one object was replaced with a novel object to evaluate the ratio of contact to the two objects.

Test [12] relates to α-synuclein aggregate in α-Syn PPF-injected C57BL6 N mice. Particulars: 1.0 mg/kg p.o. once every day for 4 weeks, FIG. 2.
Method: A human α-synuclein recombinant protein (5 μg/L, rPeptide., Bogart, Ga.) in a sterile phosphate buffer saline (pH=7.4) was subjected to incubation for 7 days at a condition of 37° C., 100 rpm, and a fibrillar human α-synuclein (α-Syn PPF, synuclein aggregation) was prepared. After ultrasonic treatment in the sterile phosphate buffer saline (pH=7.4), 10 μg of α-Syn PPF was introduced at a flow rate of 0.2 μL/min. into the right substantia nigra region (3.3 mm back, 1.2 mm to the right and 3.85 mm deep from Bregma) of a 10 week old male C57BL6 N mice (bred at a light/dark cycle of 12 hours (light period: 9:00-21:00; dark period: 21:00-9:00), temperature of 23±1° C., and a humidity of 55±5%) using a microsyringe after fixing the brain in the brain stereotaxic apparatus. […] After each behavioral pharmacology test, the mouse was fixed under perfusion, and 3 brain slices of 50 μm were formed for each region (prefrontal cortex, corpus striatum, dorsal hippocampus, substantia nigra ventral tegmental area) of a single mouse. An anti-phosphorylated α-synuclein (ser129) (α-Syn S129) antibody (Abcam, Cambridge, UK) was used to identify the α-synuclein aggregate by the immunohistochemical staining method.
Test [13] relates to MPTP Parkinson's disease model C57BL6 N mice. Kind of test: Test Example 7: cognitive function in MPTP Parkinson's disease model animal. Conditions: 1.0 mg/kg p.o. daily 2 weeks, four weeks after MPTP, FIG. 7. It is filed as in vivo, mouse. On the procedure: 1-Methyl-4-phenyl-1,2,3,6-tetrahydropyridine (MPTP, 25 mg/kg, i.p., purchased from Sigma-Aldrich (St Louis, Mo.)), which is a dopamine neurotoxin, was administered once every day for 5 consecutive days to a 10 week old male C57BL6 N mice, to prepare a Parkinson's disease model animal. From 24 hours after the final administration of MPTP, the solvent or FABP3 ligand (compound of Example 3, 1.0 mg/kg, p.o., each group n=7) was administered once every day for 2 weeks. Four weeks after administration of MPTP, at which time cognitive dysfunction was observed, the cognitive function was evaluated by a novel object recognition test.

In test [14] the test system is MPTP Parkinson's disease model mice. Kind of test: Test Example 8: motor function in MPTP Parkinson's disease model animal. It is filed as in vivo, mouse. Particulars: 1.0 mg/kg p.o. daily 2 weeks, three weeks after MPTP, FIG. 8. The procedure:
From 24 hours after the final administration of MPTP, the solvent or FABP3 ligand (compound of Example 3) (1.0 mg/kg, p.o., each group n=7) was administered once every day for 2 weeks. Three weeks after administration of MPTP, at which time motor dysfunction was observed, the motor function was evaluated by a rotarod test and beam walking test. […] It was confirmed in both tests that the ligand administered group was fully recovered from the motor dysfunction that developed after MPTP administration.

Structures are written as SMILES. Some results are limits rather than exact numbers.

From patent publication US10709688B2, “Agent for treating synucleinopathy” (TOHOKU UNIVERSITY, priority 2016, dated 2020) come the findings set out here.

Chain of GST-FABP4 (P04117 whole entry): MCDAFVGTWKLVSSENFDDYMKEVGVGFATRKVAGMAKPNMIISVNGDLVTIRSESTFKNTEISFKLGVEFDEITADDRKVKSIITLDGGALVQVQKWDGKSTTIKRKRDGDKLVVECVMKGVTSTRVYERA
Chain of FABP4 (P15090 whole entry): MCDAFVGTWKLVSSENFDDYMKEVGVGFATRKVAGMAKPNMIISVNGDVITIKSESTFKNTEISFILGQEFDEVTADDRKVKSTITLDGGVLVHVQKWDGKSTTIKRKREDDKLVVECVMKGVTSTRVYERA
Chain of FABP3 (P05413 whole entry, species assumed): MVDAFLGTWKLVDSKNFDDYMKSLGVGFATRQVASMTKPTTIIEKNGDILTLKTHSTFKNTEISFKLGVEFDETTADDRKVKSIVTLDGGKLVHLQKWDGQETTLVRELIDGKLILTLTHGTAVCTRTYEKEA
Chain of GST-FABP3 (P11404 whole entry): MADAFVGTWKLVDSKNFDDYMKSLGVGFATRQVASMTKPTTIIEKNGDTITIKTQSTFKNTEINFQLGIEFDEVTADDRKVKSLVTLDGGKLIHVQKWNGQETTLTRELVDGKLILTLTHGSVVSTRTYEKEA

Take `COc1ccccc1-n1nc(-c2ccccc2OCCCC(=O)O)cc1-c1ccccc1` [Comparative Example 1, 4-(2-(1-(2-Methoxyphenyl)-5-phenyl-H-pyrazol-3-yl)phenoxy)butanoic acid, reference compound]: the IC50 in test [1] and in test [2] was over 10000 nM each time. In addition, the “suppression of oligomer formation of α-synuclein” value in test [3] is “no suppression of oligomer formation”. For the same compound, in test [4], the “beam walking test, number of footslips” value was “did not improve”. The “rotarod test, Latency” value in test [4] is given as “no improvement was seen”. The “cognitive function by novel object recognition test and passive avoidance test” value in test [5] is given as “no effect was confirmed”. Moreover, the “number of TH positive cells (dopamine neurons)” value (“number of TH positive cells” for short) in test [6] was “no improvement was confirmed”. Further, the “number of TH and α-synuclein double positive cells” value in test [7] is “no improvement”. The results for the Kd in test [8] and in test [9] were 9620 ± 1510 nM and 3820 ± 865 nM, respectively.
For the compound `O=C(O)CCCOc1ccccc1-c1cc(-c2ccccc2Cl)n(-c2ccccc2)n1` [Example 1, 4-(2-(5-(2-Chlorophenyl)-1-phenyl-1H-pyrazol-3-yl)phenoxy)butanoic acid], the IC50 – broadly, the concentration at which inhibition is half-maximal – in test [2] stood at 640 nM. Further, in [10], the “beam walking test, number of footslips” value was “tendency towards decrease in the number of footslips” and the “rotarod test, time until the mouse falls (Latency)” value was “tendency towards decrease in the time until the mouse fell”. In addition, in [11], the “novel object recognition test, cognitive function” value is “tendency towards improvement in the cognitive function”. For the same compound, in [4], the “beam walking test, number of footslips” value was “improved significantly” and the “rotarod test, Latency” value is on record as “improved significantly”. Further, the “cognitive function by novel object recognition test and passive avoidance test” value in test [5] was “significant effects”. Further, in test [6], the “number of TH positive cells” value is “improved significantly”. Further, the “number of TH and α-synuclein double positive cells” value in test [7] is reported as “improved”. For the same compound, the “formation of α-synuclein aggregate (inclusion), anti-α-Syn S129 immunohistochemical staining” value in test [12] is “suppression of the formation of α-synuclein aggregate (inclusion) was confirmed”. In test [9], the Kd (as a rule, the concentration at which binding is half-saturated) came out at 627 ± 18.9 nM.
Turning to `O=C(O)CCCOc1ccccc1-c1cc(-c2ccccc2)n(-c2ccc(Cl)c(Cl)c2)n1` [Example 3, 4-(2-(1-(3,4-Dichlorophenyl)-5-phenyl-1H-pyrazol-3-yl)phenoxy)butanoic acid], the IC50 in test [1] worked out at 280 nM; in test [2], 1660 nM. Further, the “novel object recognition test, cognitive dysfunction” value in test [13] is listed as “such dysfunction was not observed”. For the same compound, the results for the “beam walking test, number of footslips” value in test [14] and in test [4] were “entirely recovered” and “improved significantly”, respectively. The “rotarod test, Latency” value in [14] is given as “recovered fully”; in [4], “improved significantly”. The “cognitive function by novel object recognition test and passive avoidance test” value in [5] is given as “significant effects”. Also, in test [6], the “number of TH positive cells” value is “improved significantly”. Also, the “number of TH and α-synuclein double positive cells” value in test [7] is “tendency towards improvement”. Also, the dissociation constant Kd in test [8] came to 2220 ± 104 nM; in test [9], 6670 ± 1400 nM.
